Measurements taken from article PMC5670201 (Scientific Reports, 2017).
Ends that are not written are not given here.

Assays:
[1] = biological target: T1, HSA Peptide 40 (Homo sapiens, UniProt P02768); assay: biochemical; assay type: binding; conditions: for binding to HSA Peptide 40: Biacore SPR screen, immobilized HSA Peptide 40 and vice versa
T1 construct: HSA 40 (479-496); purchased New England Peptide (Gardner, MA, USA)
Experimental: All peptides were run in the pM-uM concentration ranges. […] Short gaps in binding curves at transition times are from removal of solvent spikes during analysis. Binding kinetics were determined via Biacore Evaluation Software analysis of SPR sensograms. […] Structure, PDB 1BJ1, was visualized using UCSF Chimera.
The 3D structure of the positive variable region peptides were predicted by PEPFOLD 3.0 to compare to their beta hairpin structure within the full antibody[9]–[11] (Fig. 4d).
(§1) Peptides were run in the pM-uM concentration range. […] (b) Multiple sequence alignment of the variable region peptides in question, performed by Clustal Omega. […] (d) 3D structure prediction of peptides in solution performed by PEP-FOLD 3.0, visualized in Chimera. […] Pembrolizumab included as a negative control.
Peptides were re-suspended and stored in HBS running buffer at either 5 or 10 mg/ml, with up to 10% DMSO added as needed. All antibodies, peptides, as well as HSA, were immobilized on Biacore (GE Healthcare, Chicago, IL) CM5 chips via amine coupling according to manufacture protocol. Immobilization scouting was performed with pH 4.0–5.5 acetate at micromolar concentration ranges, to determine ideal immobilization conditions. […] All peptides and proteins were screened at multiple concentrations from pico to millimolarity, with an association time of 120 to 180 seconds and a dissociation time from 180 to 1200 seconds. Binding kinetics were determined using Biacore Evaluation Software and a 1:1 fit model.
The mixture was frozen, evaporated, and re-suspended in HPLC grade water with 0.1% trifluoroacetic acid. The digest was applied to a Waters X-Bridge Protein BEH C4 column (Waters, Milford, MA) and eluted off at a flow rate of 1 ml/min and a gradient of 0–60% Acetonitrile with 0.1% trifluroacetic acid over 60 minutes.

[2] = biological target: Human Serum Albumin (Homo sapiens, UniProt P02768); assay: Biacore SPR, antibody variable domain peptides and antibodies against human serum albumin; assay type: binding; conditions: for binding to human serum albumin: Biacore SPR screen, immobilized HSA and vice versa; for Kd: human, Biacore SPR, CM5 amine coupling, peptide over immobilized HSA and vice versa, pM-uM, 1:1 fit, read-out: Kinetic Binding Parameters Against Human Serum Albumin: KD
Excerpt: as §1, with “The 3D structure of the positive variable region peptides were predicted by PEPFOLD 3.0 to compare to their beta hairpin structure within the full antibody[9]-[11] (Fig. 4d). […] Peptides” for “Peptides”

Molecule | binding to HSA Peptide 40 [1] | binding to human serum albumin [2] | Kd [2] | Kd [1] | kon ([1]; read-out: Kinetic Binding Parameters against HSA Peptide 40: kon)
CC(C)[C@H](NC(=O)[C@H](CC(N)=O)NC(=O)[C@H](Cc1ccccc1)NC(=O)[C@H](Cc1ccc(O)cc1)NC(=O)[C@H](Cc1c[nH]c2ccccc12)NC(=O)[C@H](CC(=O)O)NC(=O)CNC(=O)CNC(=O)[C@H](Cc1ccc(O)cc1)NC(=O)[C@H](Cc1ccc(O)cc1)NC(=O)[C@@H](NC(=O)[C@H](CO)NC(=O)[C@H](CCCNC(=N)N)NC(=O)[C@H](C)NC(=O)[C@H](CS)NC(=O)[C@@H](N)Cc1ccc(O)cc1)[C@@H](C)O)C(=O)N[C@@H](Cc1c[nH]c2ccccc12)C(=O)NCC(=O)N[C@@H](C)C(=O)NCC(=O)O [RVP1] | bound both | bound both | 2.48e+06 pM | – | –
DTAVYYCAKYPHYYGSSHWYF [BVP1] | – | – | 2.37e+06 pM | – | –
HYYGSSHWYFDVWGQ [Bevacizumab Heavy Chain 11] | – | – | – | 503 nM | 357 M⁻¹ s⁻¹
RVP2: Rituximab Variable Domain Peptide 2 (101-120) | binding neither | binding neither | – | – | –
rituximab: commercial monoclonal antibody, anti-CD20 | – | do not bind HSA | – | – | –
